# Columns and labels:
# [1] = system: Akt phosphorylated at Ser473 in PC-3 cells; assay: Cellular assay: phosphorylation of Akt at Ser473 in PC-3 cells (MSD ELISA); type: cell-based; settings: Homo sapiens, PC-3, 1 h, PC-3 cells, 60 min compound incubation, MSD ELISA; read-out: IC50 pAkt_S473
# Procedure, shortened: (§1)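 Electrochemiluminescent sandwich ELISA read-out: phospho-specific capture (Ser473 or Thr308), Sulfo-tag anti-total Akt detection, signal proportional to phospho-Akt. Cells treated 60 min at 37° C with compound, DMSO 0.3%. IC50 fitted from five concentrations.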
# [2] = biological target: T1, PI3Kβ (Homo sapiens, UniProt P42338); assay: Enzyme binding assay (KINOMEscan, DiscoveRx); settings: PIK3Cβ_h, read-out: Kd PIK3Cβ_h
# T1 construct: purchased DiscoveRx Corporation, San Diego (contract service, KINOMEscan)
# T1 sequence (P42338 whole entry): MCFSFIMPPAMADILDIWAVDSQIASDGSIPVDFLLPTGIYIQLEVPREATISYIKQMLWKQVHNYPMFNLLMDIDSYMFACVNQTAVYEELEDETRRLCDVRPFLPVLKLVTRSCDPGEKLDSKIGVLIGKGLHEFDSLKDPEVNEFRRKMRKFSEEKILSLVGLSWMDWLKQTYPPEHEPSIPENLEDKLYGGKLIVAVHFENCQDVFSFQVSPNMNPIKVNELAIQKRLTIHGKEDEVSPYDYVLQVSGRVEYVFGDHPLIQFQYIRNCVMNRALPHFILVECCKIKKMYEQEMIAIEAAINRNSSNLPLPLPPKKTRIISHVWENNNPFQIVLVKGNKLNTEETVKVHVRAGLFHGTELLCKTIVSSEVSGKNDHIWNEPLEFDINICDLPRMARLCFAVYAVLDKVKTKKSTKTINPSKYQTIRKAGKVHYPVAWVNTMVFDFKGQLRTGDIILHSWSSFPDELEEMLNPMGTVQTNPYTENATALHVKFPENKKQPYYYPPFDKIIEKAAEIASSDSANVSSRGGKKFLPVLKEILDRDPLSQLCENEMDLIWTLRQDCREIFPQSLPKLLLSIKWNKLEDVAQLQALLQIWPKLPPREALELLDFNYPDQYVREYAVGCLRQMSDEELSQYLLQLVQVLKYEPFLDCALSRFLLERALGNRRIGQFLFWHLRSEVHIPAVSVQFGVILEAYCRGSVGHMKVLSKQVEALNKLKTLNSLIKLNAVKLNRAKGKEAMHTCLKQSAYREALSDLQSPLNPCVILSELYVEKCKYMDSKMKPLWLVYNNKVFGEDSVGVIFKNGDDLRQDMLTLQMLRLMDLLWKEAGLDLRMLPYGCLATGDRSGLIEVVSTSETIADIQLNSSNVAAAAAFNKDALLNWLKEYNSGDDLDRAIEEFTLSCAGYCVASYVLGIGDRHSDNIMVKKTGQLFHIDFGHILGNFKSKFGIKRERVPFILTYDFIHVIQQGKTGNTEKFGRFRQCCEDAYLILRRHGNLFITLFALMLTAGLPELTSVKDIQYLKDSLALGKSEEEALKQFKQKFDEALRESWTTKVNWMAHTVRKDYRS
# Procedure, shortened: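 Kinase binding affinities were measured with KINOMEscan technology. Results are given as Kd, the inhibitor binding constant, in nM.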
# [3] = system: Akt phosphorylated at Thr308 in PC-3 cells; assay: Cellular assay: phosphorylation of Akt at Thr308 in PC-3 cells (MSD ELISA); type: cell-based; settings: Homo sapiens, PC-3, 1 h, PC-3 cells, 60 min compound incubation, MSD ELISA; read-out: IC50 pAkt_Thr308
# Procedure, shortened: as §1
# [4] = biological target: T2, kinase enzymes (Homo sapiens, UniProt P42345); assay: Enzyme binding assay (KINOMEscan, DiscoveRx), further kinases of Table A; settings: MTOR_h
# T2 construct: purchased DiscoveRx Corporation, San Diego (contract service, KINOMEscan)
# Procedure, shortened: (§2)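 Binding affinities were measured on the KINOMEscan platform.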
# [5] = biological target: T3, kinase enzymes (Homo sapiens, UniProt P42336); assay: as above; settings: PIK3Cα_h
# T3 construct: purchased DiscoveRx Corporation, San Diego (contract service, KINOMEscan)
# T3 sequence (P42336 whole entry): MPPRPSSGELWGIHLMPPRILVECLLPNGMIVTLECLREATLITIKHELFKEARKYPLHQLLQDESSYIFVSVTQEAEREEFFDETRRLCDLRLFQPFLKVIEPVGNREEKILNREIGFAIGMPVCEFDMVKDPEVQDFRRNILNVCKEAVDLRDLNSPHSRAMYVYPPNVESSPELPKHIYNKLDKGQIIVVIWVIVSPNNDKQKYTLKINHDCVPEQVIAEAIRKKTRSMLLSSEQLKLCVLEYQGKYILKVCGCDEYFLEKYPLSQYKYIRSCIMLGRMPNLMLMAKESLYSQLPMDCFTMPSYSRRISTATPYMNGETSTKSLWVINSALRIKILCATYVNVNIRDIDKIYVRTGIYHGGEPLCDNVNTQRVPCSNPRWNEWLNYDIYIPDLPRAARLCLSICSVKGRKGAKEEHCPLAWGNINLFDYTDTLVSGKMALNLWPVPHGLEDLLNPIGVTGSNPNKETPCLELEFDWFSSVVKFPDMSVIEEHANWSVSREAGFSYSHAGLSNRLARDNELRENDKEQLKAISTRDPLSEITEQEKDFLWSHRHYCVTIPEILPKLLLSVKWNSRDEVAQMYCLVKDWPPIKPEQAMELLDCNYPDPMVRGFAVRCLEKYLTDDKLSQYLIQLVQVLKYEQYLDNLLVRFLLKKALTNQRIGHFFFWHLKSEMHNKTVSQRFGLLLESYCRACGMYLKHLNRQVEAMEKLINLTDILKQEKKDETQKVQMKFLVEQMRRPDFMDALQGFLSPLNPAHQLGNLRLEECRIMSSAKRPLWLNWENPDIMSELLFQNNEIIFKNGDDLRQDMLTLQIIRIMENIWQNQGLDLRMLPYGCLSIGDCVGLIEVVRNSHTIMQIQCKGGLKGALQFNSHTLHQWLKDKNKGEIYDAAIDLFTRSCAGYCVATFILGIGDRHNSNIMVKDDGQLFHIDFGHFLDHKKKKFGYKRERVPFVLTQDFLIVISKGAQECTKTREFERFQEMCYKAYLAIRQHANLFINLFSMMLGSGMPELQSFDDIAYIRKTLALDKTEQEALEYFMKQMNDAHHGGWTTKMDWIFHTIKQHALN
# Procedure, shortened: as §2
# [6] = biological target: T4, kinase enzymes (Homo sapiens, UniProt P48736); assay: as above; settings: PIK3Cγ_h
# T4 construct: purchased DiscoveRx Corporation, San Diego (contract service, KINOMEscan)
# T4 sequence (P48736 whole entry): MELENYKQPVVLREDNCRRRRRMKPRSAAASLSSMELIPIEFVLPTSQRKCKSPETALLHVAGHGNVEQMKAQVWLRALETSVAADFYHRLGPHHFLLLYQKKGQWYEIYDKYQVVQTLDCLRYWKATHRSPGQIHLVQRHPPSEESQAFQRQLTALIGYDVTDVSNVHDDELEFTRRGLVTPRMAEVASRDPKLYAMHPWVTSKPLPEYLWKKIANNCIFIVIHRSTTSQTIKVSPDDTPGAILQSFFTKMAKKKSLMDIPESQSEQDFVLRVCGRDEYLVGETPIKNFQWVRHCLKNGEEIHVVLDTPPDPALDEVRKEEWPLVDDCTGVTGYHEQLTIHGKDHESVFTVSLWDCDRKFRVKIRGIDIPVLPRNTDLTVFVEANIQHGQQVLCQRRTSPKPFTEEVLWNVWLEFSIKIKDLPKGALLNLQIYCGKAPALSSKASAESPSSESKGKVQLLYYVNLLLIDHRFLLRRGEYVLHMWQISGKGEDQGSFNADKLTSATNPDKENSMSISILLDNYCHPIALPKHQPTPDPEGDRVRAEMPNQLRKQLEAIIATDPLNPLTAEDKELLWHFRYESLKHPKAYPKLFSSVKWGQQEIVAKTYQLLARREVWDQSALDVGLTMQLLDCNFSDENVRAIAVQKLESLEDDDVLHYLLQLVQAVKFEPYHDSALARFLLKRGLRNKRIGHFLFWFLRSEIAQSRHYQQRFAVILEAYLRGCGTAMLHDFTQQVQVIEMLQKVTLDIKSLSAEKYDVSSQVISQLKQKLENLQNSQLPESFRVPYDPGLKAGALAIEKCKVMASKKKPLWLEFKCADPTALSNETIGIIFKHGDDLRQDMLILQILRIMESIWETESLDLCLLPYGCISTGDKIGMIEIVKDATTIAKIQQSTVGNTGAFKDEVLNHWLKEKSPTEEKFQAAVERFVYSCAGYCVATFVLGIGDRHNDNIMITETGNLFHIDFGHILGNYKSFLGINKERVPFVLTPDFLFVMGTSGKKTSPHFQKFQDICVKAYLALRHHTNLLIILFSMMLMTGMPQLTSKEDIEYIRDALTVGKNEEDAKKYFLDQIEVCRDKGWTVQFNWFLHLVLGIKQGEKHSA
# Procedure, shortened: as §2
# [7] = biological target: T5, PI3Kδ (Homo sapiens, UniProt O00329); assay: Enzyme binding assay (KINOMEscan, DiscoveRx); settings: PIK3Cδ_h
# T5 construct: purchased DiscoveRx Corporation, San Diego (contract service, KINOMEscan)
# T5 sequence (O00329 1-1044): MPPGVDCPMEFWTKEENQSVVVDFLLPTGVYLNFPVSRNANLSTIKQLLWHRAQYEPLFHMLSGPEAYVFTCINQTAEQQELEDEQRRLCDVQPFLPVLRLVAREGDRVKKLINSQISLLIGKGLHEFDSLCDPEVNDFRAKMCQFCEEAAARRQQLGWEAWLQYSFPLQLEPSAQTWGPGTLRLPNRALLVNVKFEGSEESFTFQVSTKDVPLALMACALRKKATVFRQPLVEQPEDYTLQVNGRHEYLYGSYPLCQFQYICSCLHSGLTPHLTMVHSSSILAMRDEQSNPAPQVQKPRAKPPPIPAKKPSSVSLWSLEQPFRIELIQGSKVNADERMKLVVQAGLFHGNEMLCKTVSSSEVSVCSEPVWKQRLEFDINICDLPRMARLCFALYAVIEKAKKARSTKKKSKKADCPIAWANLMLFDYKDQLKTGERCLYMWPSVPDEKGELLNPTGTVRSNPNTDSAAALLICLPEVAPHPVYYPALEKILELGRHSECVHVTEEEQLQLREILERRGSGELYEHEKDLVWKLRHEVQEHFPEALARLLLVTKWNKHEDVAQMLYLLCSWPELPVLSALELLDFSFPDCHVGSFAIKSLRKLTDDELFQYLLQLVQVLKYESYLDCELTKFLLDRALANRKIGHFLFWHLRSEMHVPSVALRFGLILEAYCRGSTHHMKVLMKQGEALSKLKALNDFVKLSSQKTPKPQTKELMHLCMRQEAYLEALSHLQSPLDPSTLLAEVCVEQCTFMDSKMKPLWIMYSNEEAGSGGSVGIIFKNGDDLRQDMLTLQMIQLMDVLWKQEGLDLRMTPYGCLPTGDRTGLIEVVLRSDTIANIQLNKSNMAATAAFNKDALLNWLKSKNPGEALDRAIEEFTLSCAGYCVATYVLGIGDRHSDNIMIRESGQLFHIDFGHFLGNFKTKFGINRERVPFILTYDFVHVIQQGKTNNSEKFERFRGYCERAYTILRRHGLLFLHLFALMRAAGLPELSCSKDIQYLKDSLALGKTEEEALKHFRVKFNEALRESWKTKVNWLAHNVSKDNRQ
# Procedure, shortened: as §2
SMILES,IC50 [1] [nM],Kd [2] [nM],melting point [°C],IC50 [3] [nM],Kd [4] [µM],Kd [5] [nM],Kd [6] [nM],Kd [7] [nM]
CN(C)C(=O)c1cc(C2CCCN2c2cccc(F)c2)c2nc(N3CCOCC3)cnc2c1 (stereo not drawn) [Compound 28],5,1,80,6,> 30.2,107,832,29
COc1cc(F)cc(N2CCCC2c2cc(C(=O)N(C)C)cc3ncc(N4CCOCC4)nc23)c1 (stereo not drawn) [Compound 32],12,1,80,17,> 30.2,120,646,85
O=C(c1cc(C2CCCN2c2cc(F)cc(F)c2)c2nc(N3CCOCC3)cnc2c1)N1CC2(C1)CS(=O)(=O)C2 (stereo not drawn) [Compound 34],< 0.8,0.4,160,3,> 30.2,50,933,30
Cc1cc(F)cc(N2CCCC2c2cc(C(=O)N(C)C)cc3ncc(N4CCOCC4)nc23)c1 (stereo not drawn) [Compound 35],~39,2,80,~26.9,> 30.2,162,1910,151
COc1cccc(N2CCCC2c2cc(C(=O)N(C)C)cc3ncc(N4CCOCC4)nc23)c1 (stereo not drawn) [Compound 41],31,1,80,22,> 30.2,389,1380,141
CN(C)C(=O)c1cc(C2CCCN2c2ccc(F)cc2)c2nc(N3CCOCC3)cnc2c1 (stereo not drawn) [Compound 42],16,1,80,11,> 30.2,331,1480,56
CN(C)C(=O)c1cc(C2CCCN2c2cc(F)cc(C=O)c2)c2nc(N3CCOCC3)cnc2c1 (stereo not drawn) [Compound 44],74,1,80,66,23.4,234,631,174
CN(C)C(=O)c1cc(C2CCCN2c2cc(F)cc(CO)c2)c2nc(N3CCOCC3)cnc2c1 (stereo not drawn) [Compound 45],166,3,80,72,31.6,170,2090,126
CC(C)NCc1cc(F)cc(N2CCCC2c2cc(C(=O)N(C)C)cc3ncc(N4CCOCC4)nc23)c1 (stereo not drawn) [Compound 49],> 513,16,80,468,> 30.2,2190,7590,933
CN(CCO)C(=O)c1cc(C2CCCN2c2cc(F)cc(F)c2)c2nc(N3CCOCC3)cnc2c1 (stereo not drawn) [Compound 50],1,0.2,80,1,8.91,11,87,8
CON(C)C(=O)c1cc(C2CCCN2c2cc(F)cc(F)c2)c2nc(N3CCOCC3)cnc2c1 (stereo not drawn) [Compound 51],3,1,80,3,> 30.2,55,339,39
CN(C)C(=O)c1cc(C2CCCN2c2cccc(C(F)(F)F)c2)c2nc(N3CCOCC3)cnc2c1 (stereo not drawn) [Compound 52],> 513,38,80,240,> 30.2,6170,13800,4900
CN(C)C(=O)c1cc(C2CCCN2c2ccc(C#N)c(F)c2)c2nc(N3CCOCC3)cnc2c1 (stereo not drawn) [Compound 54],> 513,115,80,> 513,26.9,16200,> 30200,7080
Cc1c(N2CCCC2c2cc(C(=O)N(C)C)cc3ncc(N4CCOCC4)nc23)cccc1C(F)(F)F (stereo not drawn) [Compound 55],> 513,3980,80,> 513,> 30.2,> 30200,> 30200,> 30200
O=C(O)c1cc(C2CCCN2c2cc(F)cc(F)c2)c2nc(N3CCOCC3)cnc2c1 (stereo not drawn) [Compound 62],52,1,> 260,32,2.04,25,234,51
O=C(c1cc(C2CCCN2c2cc(F)cc(F)c2)c2nc(N3CCOCC3)cnc2c1)N1CC(CO)C1 (stereo not drawn) [Compound 63],9,0.5,100,4,8.13,79,891,27
O=C(c1cc(C2CCCN2c2cc(F)cc(F)c2)c2nc(N3CCOCC3)cnc2c1)N1CC(O)C1 (stereo not drawn) [Compound 65],6,1,80,2,10.7,38,200,17
O=C(NCCCO)c1cc(C2CCCN2c2cc(F)cc(F)c2)c2nc(N3CCOCC3)cnc2c1 (stereo not drawn) [Compound 66],13,2,80,6,17,65,676,79
CC(Oc1cccc(F)c1)c1cc(C(=O)N(C)C)cc2ncc(N3CCOCC3)nc12 (stereo not drawn) [Compound 68],257,3,49,148,22.4,3160,15100,589
CC(C)N1CCN(C(=O)c2cc(C3CCCN3c3cc(F)cc(F)c3)c3nc(N4CCOCC4)cnc3c2)CC1 (stereo not drawn) [Compound 69],117,3,80,~32,> 30.2,891,3090,195
O=C(NCCO)c1cc(C2CCCN2c2cc(F)cc(F)c2)c2nc(N3CCOCC3)cnc2c1 (stereo not drawn) [Compound 71],~15,1,80,13,22.4,251,794,138
CNCCNC(=O)c1cc(C2CCCN2c2cc(F)cc(F)c2)c2nc(N3CCOCC3)cnc2c1 (stereo not drawn) [Compound 72],2,0.2,80,1,20.4,56,204,17
NC1CCN(C(=O)c2cc(C3CCCN3c3cc(F)cc(F)c3)c3nc(N4CCOCC4)cnc3c2)CC1 (stereo not drawn) [Compound 75],2,0.1,80,1,> 30.2,30,4,2
OC1CN(Cc2cc(C3CCCN3c3cc(F)cc(F)c3)c3nc(N4CCOCC4)cnc3c2)C1 (stereo not drawn) [Compound 76],7,0.1,90,7,> 30.2,50,251,19
